Literature values, collected in patent US9528030B1, “Cobalt inhibitor combination for improved dishing” (Cabot Microelectronics Corporation, priority 2015, dated 2016).
Like-named read-outs stand apart in the source and are kept apart here.

Conditions: n-octanol-water

Azole Compound logP	Azole Compound logP (listed as benzotriazole)	SMILES
−1.54	–	O=C(O)Cc1nnn[nH]1 [1H-Tetrazole-5-acetic acid]
−1.51	–	Nc1n[nH]c(C(=O)O)n1 [3-Amino-1,2,4-triazole-5-carboxylic acid]
+1.44	1.44	c1ccc2[nH]nnc2c1 [BTA, benzotriazole]

SMILES	Azole Compound logP	Azole Compound logP (listed as benzotriazole)
Nc1nnn[nH]1 [5-Aminotetrazole]	−0.92	–
